# From patent US20050239764A1, “Zinc pyrrolidonecarboxylate dihydrate and method of producing the same” (Ajinomoto Co., Inc., priority 2004, published 2005)
# Settings: dihydrate; for transmittance (T %) of 10 g/dl aqueous solution: 4 g dissolved in water to 40 ml, kept at 25° C. for one day, stirred 1 min, 550 nm, optical path 10 mm, 25° C.; for liquid of 10 g/dl aqueous solution: evaluation grade of dissolution state from transmittance at 550 nm, 10 mm path
# Protocol: Apparatus: Spectrophotometer V-570 (JAS. CO)
# Spectrophotometer (UV/VIS/NIR)
# measure wavelength: 550 nm
# band width (near infrared): 8.0 nm
# repeating interval: 3 sec.
# measure cell: quartz glass cell T-1-UV-10 manufactured by TOSOH Quartz Co.
# (Optical path width: 10 mm, outside width; 12.5 mm, height; 45 mm)
# measure temperature: 25° C.(R.T.)
# 1) Stabilization of value was performed, thereby starting setting until 2 hours before measuring.
# 2) Determination of measuring program: Fixed Wavelength program was selected, and then initialization of wavelength was performed.
# 3) Injecting ion exchange water (about 3 ml) into each of blank cell and sample cell, setting on photometer, correcting zero point, and then determining a blank (Completion of measuring preparation).
# RIKEN KOGYO INC., Magmix Stirrer) at 3 of speed range, and then the solution (3 ml) was injected into measuring cell immediately.
# 5) The cell was equipped photometer immediately after confirming absence of bubble in the cell.
# 6) After setting, the cell was stood for 1 min, and then subjected to measurement.
# 7) The transmittance (% T) is the value measured with photometer.
# Under the above conditions, the transmittance was obtained accurately although measuring sample comprised insoluble material, because insoluble material was dispersed uniformly in the whole cell.
substance,measurement,value
"zinc pyrrolidonecarboxylate dihydrate [Com. Ex. 1, reference compound]",transmittance (T %) of 10 g/dl aqueous solution,17.5%
"zinc pyrrolidonecarboxylate dihydrate [Com. Ex. 2, reference compound]",transmittance (T %) of 10 g/dl aqueous solution,30.6%
"zinc pyrrolidonecarboxylate dihydrate [Com. Ex. 3, reference compound]",transmittance (T %) of 10 g/dl aqueous solution,60.3%
"zinc pyrrolidonecarboxylate dihydrate [Com. Ex. 4, reference compound]",transmittance (T %) of 10 g/dl aqueous solution,19.9%
zinc pyrrolidonecarboxylate dihydrate [Ex. 1],transmittance (T %) of 10 g/dl aqueous solution,96.6%
same,liquid of 10 g/dl aqueous solution,◯
zinc pyrrolidonecarboxylate dihydrate [Ex. 2],transmittance (T %) of 10 g/dl aqueous solution,97.6%
same,liquid of 10 g/dl aqueous solution,⊚
zinc pyrrolidonecarboxylate dihydrate [Ex. 3],transmittance (T %) of 10 g/dl aqueous solution,96.9%
same,liquid of 10 g/dl aqueous solution,◯
zinc pyrrolidonecarboxylate dihydrate [Ex. 4],transmittance (T %) of 10 g/dl aqueous solution,97.6%
same,liquid of 10 g/dl aqueous solution,⊚
zinc pyrrolidonecarboxylate dihydrate [Ex. 5],transmittance (T %) of 10 g/dl aqueous solution,97.9%
same,liquid of 10 g/dl aqueous solution,⊚
zinc pyrrolidonecarboxylate dihydrate [Ex. 6],transmittance (T %) of 10 g/dl aqueous solution,86.1%
same,liquid of 10 g/dl aqueous solution,Δ (Δ: 93-85%)
zinc pyrrolidonecarboxylate dihydrate [Ex. 7],transmittance (T %) of 10 g/dl aqueous solution,95.7%
